The source of these data is publication PMC6859963, “Fragment screening for a protein-protein interaction inhibitor to WDR5” (Structural Dynamics, 2019).

Structures can show the parent of a compound that is named as a salt. Some results are limits rather than exact numbers.

Assay [1] concerns the target T1, WDR5 (Homo sapiens, UniProt P61964).
T1 construct: hexahistidine-SUMO (N, cleaved yes); made in house; host or cells: E. coli BL21-CodonPlus-RIL
Description: SPR binding of compounds to captured biotinylated WDR5, 1:1 steady-state affinity fit. The conditions noted are these: for Kd: SPR; for LE (ligand efficiency): from SPR KD. The method, then: SPR assay of small molecule binding used minimally biotinylated WDR5^23–334 protein captured on streptavidin-coated SPR chips. WDR5 (1 eq.) was mixed with freshly water-dissolved EZ-link Sulfo-NHS-LC-LC-biotin (0.8 eq., Thermofisher Scientific). The reaction mixture was incubated on ice for 2 h; unreacted biotin reagent was then removed from the mixture using size-exclusion chromatography on a Superdex 75 (10/300) column equilibrated in storage buffer (10 mM HEPES, 150 mM NaCl, 5 mM DTT).
(§1) SPR experiments were performed using a Biacore T200 or S200 biosensor with a CM5 chip (GE Healthcare). Streptavidin was coupled to the chip surface at 310 K in HBS-P+ running buffer (10 mM HEPES, pH 7.4, 150 mM NaCl, 0.05%[v/v] Tween-20) after a 10 min activation with a 1:1 mixture of NHS/EDC (N-hydroxysuccinimide/N-ethyl-N′-(3-[…])carbodiimide). Protein was diluted to 100 μg·ml^−1 at pH 4.5 (10 mM sodium acetate, 0.005%[v/v] Tween-20) and injected for 7 min. The surface was then blocked with 1 M ethanolamine, pH 8.0, for 7 min. Immobilization levels were typically 7000–13 000 RU, but as low as 1800 RU for compounds 55, 59, and Ac-ARV-NH2, where fitting uses a 1:1 kinetic model to determine dissociation rates. WDR5 capture was then performed over the streptavidin-coupled flow-cells at 293 K in HBS-P+ buffer with the addition of 5 mM DTT. Capture levels for fragment screening were ∼19 000 RU, while capture levels for subsequent testing were ∼9000 RU. The N-terminal domain of heat-shock protein 90 (Hsp90, UnprotKB P08238, residues 1–382) was captured (∼11 000 RU) during screening to provide an unrelated negative control surface, activity being monitored with intermittent ADP (adenosine diphosphate) injections. Biotin was subsequently injected over WDR5- and negative control protein-bound flow-cells to block remaining unbound streptavidin. SPR experiments were performed at 298 K in SPR running buffer containing 50 mM HEPES, 150 mM NaCl, 5 mM DTT, and 0.05%[v/v] Tween-20, 2%[v/v] DMSO. Initial fragments were screened at 100 μM. When performing dose-response testing, analytes were serially diluted (2- or 3-fold), injected for 30 s contact time, and allowed to dissociate for 30 s. The flow rate was 60 μl·min^−1. Binding sensorgrams were processed, solvent-corrected, and double-referenced using Scrubber software (BioLogic Software, Australia). […] Therefore, to determine binding affinities (KD values), responses at equilibrium for each analyte were fitted to a 1:1 steady-state affinity model available within Scrubber.
A general note: In SPR one partner is held on a chip, and binding of the other changes the refractive index at the surface.

Assay [2] has as its target T1, WDR5. Description: SPR 1:1 kinetic model to determine dissociation rates from WDR5. Format: binding. The note with it: for koff: read-out: kd (dissociation rate); for binding to WDR5: samples were mixtures of diastereomers.
Source text: Compound 1 was identified as a highly ligand efficient hit that binds the phenylalanine clamp of the WIN site, approximating the arginine headgroup of the WIN motif. […] Two peptidomimetics, with 1 replacing the arginine, were synthesized. Compounds 55 and 59 are analogs of the Ac-ARV-NH2 and Ac-α-MeAla-RV-NH2 tripeptides,[21] respectively (Fig. 5). […] The hydroxymethyl imidazole thus appears to be a good replacement for the charged arginine residue in this context, and 59 may serve as a tool compound with more sensible physicochemical parameters than previous potent tripeptides. […] Binding constants of compounds 55 and 59 are thus difficult to derive. Instead, the (concentration independent) dissociation rates have been reported for 55 and 59 (kd = 0.067 s^−1 and 0.025 s^−1, respectively) to provide a more meaningful comparison to the analogous tripeptide Ac-ARV-NH2 (kd = 0.054 s^−1). […] However, if multiple diastereomers of 55/59 were indeed binding WDR5, it would not detract from the conclusion that hydroxymethyl imidazole-peptidomimetics have potential as WDR5 WIN-site inhibitors.
as §1

The mark [3] stands for this setting: Table II, fragment core, mean ± SE (SE not reported where n = 1).
The mark [4] stands for this setting: Table III, ether-derivatized 2, mean ± SE (SE not reported where n = 1).
Setting [5] is: Table IV, derivatives of 2, mean ± SE (SE not reported where n = 1).
[6] abbreviates: 1:1 kinetic model, concentration independent, 55 and 59 tested as mixtures of diastereomers.

As to `CCCCc1ncc(CO)[nH]1` [Compound 1, (2-butyl-1H-imidazol-5-yl)methanol], the Kd (usually the free concentration of one partner at which half of the binding sites on the other are occupied at equilibrium, for simple one-to-one binding) at WDR5 [1] (setting [3]) was 480 ± 30 µM. The “LE (ligand efficiency)” value on WDR5 [1] is reported as 0.41 kcal·mol^−1·heavy atom^−1.

For the compound `Cc1nc(CO)c[nH]1` [Compound 2, (2-methyl-imidazol-4-yl)methanol], the Kd on WDR5 [1] (setting [3]) and at WDR5 [1] (setting [4]) was 260 ± 20 µM each time. Moreover, on WDR5 [1], the “LE (ligand efficiency)” value amounted to 0.61 kcal·mol^−1·heavy atom^−1. Compound `OCc1c[nH]cn1` [Compound 3] gave a Kd at WDR5 [1] greater than 3000 µM. For the same compound, at WDR5 [1] (Table II, estimated from single concentration (100 μM) screen, read-out: KD), the potency estimated from few doses was greater than 3000 µM. On WDR5 [1] (setting [3]), `Cc1cc(CO)n[nH]1` [Compound 4] returned a dissociation constant (Kd) greater than 3000 µM. The same measure, in the same setting: to `OCc1ncc[nH]1` [Compound 5] belongs greater than 3000 µM. As for `Cc1ncc[nH]1` [Compound 6, 2-methyl imidazole], the equilibrium dissociation constant (Kd) at WDR5 [1] (setting [3]) came to 2100 µM. For the same compound, on WDR5 [1], the “LE (ligand efficiency)” value stood at 0.60 kcal·mol^−1·heavy atom^−1. As for `COCc1c[nH]c(C)n1` [Compound 7], on WDR5 [1] (setting [4]), the Kd was greater than 3000 µM. The same measure, in the same setting: to `CCCOCc1c[nH]c(C)n1` [Compound 8, 2-methyl-4-(propoxymethyl)-1H-imidazole] belongs greater than 3000 µM; to `Cc1nc(COC(C)C)c[nH]1` [Compound 9, 4-(isopropoxymethyl)-2-methyl-1H-imidazole], greater than 3000 µM; to `Cc1nc(COCC(F)(F)F)c[nH]1` [Compound 10, 2-methyl-4-((2,2,2-trifluoroethoxy)methyl)-1H-imidazole], greater than 3000 µM. Still for that read-out and setting: to `Cc1nc(COCc2ccccc2)c[nH]1` [Compound 11, 4-((benzyloxy)methyl)-2-methyl-1H-imidazole] belongs 950 µM. Consider `OCc1c[nH]c(-c2ccccc2)n1` [Compound 13], for which the Kd was 5200 µM at WDR5 [1] and greater than 3000 µM on WDR5 [1] (setting [5]). On WDR5 [1] (setting [5]), `OCc1c[nH]c(Cc2ccccc2)n1` [Compound 14, (2-benzyl-1H-imidazol-4-yl)methanol] displayed a Kd of 530 µM. Still for that read-out and setting: with `OCc1c[nH]c(CCc2ccccc2)n1` [Compound 15, (2-phenethyl-1H-imidazol-4-yl)methanol] the figure was 300 ± 40 µM. The compound `OCc1c[nH]c(CCCc2ccccc2)n1` [Compound 16, (2-(3-phenylpropyl)-1H-imidazol-4-yl)methanol] returned a Kd on WDR5 [1] (setting [5]) of 140 ± 30 µM. The “LE (ligand efficiency)” value on WDR5 [1] was 0.33 kcal·mol^−1·heavy atom^−1. In the same order, the values of `COC(CCc1nc(CO)c[nH]1)c1ccccc1` (stereo not shown) [Compound 17, (2-(3-methoxy-3-phenylpropyl)-1H-imidazol-4-yl)methanol] are 22 ± 6 µM and 0.35 kcal·mol^−1·heavy atom^−1.

With `CNC(=O)CCc1nc(CO)c[nH]1` [Compound 23, 3-(4-(hydroxymethyl)-1H-imidazol-2-yl)-N-methylpropanamide], on WDR5 [1] (setting [5]), binding was characterised by a dissociation constant (Kd) of 890 µM. On the same count and under the same terms, with `CCOC(=O)CCc1nc(CO)c[nH]1` [Compound 24, ethyl 3-(4-(hydroxymethyl)-1H-imidazol-2-yl)propanoate] the figure was 240 ± 10 µM; with `NCCCCc1ncc(CO)[nH]1` [Compound 28, (2-(4-aminobutyl)-1H-imidazol-5-yl)methanol bis trifluoroacetic acid], 350 ± 40 µM; with `CC(=O)NCCCCc1ncc(CO)[nH]1` [Compound 29, N-(4-(5-(hydroxymethyl)-1H-imidazol-2-yl)butyl)acetamide trifluoroacetic acid], 200 ± 10 µM.

As to `O=C(NCCCCc1ncc(CO)[nH]1)c1ccccc1` [Compound 30, N-(4-(5-(hydroxymethyl)-1H-imidazol-2-yl)butyl)benzamide], the Kd on WDR5 [1] (setting [5]) is 12 ± 1 µM. The same measure, in the same setting: with `O=C(Cc1ccccc1)NCCCCc1ncc(CO)[nH]1` [Compound 31, N-(4-(5-(hydroxymethyl)-1H-imidazol-2-yl)butyl)-2-phenylacetamide trifluoroacetic acid] the figure was 25 ± 3 µM. Compound `COC(=O)NCCCCc1ncc(CO)[nH]1.O=C(O)C(F)(F)F` [Compound 32, Methyl (4-(5-(hydroxymethyl)-1H-imidazol-2-yl)butyl)carbamate trifluoroacetic acid] showed a Kd at WDR5 [1] (setting [5]) of 28.9 ± 0.5 µM. Further, the “LE (ligand efficiency)” value on WDR5 [1] is 0.39 kcal·mol^−1·heavy atom^−1.

As to `O=C(NCCCCc1ncc(CO)[nH]1)OCc1ccccc1` [Compound 35, Benzyl (4-(5-(hydroxymethyl)-1H-imidazol-2-yl)butyl)carbamate trifluoroacetic acid], at WDR5 [1] (setting [5]), the Kd was 11 ± 1 µM. As for `COC(=O)N(CCCCc1ncc(CO)[nH]1)Cc1ccccc1` [Compound 37, Methyl benzyl(4-(5-(hydroxymethyl)-1H-imidazol-2-yl)butyl)carbamate trifluoroacetic acid], at WDR5 [1] (setting [5]), the affinity, expressed as Kd, was 4.5 ± 0.3 µM. Take `COC(=O)N(CCCCc1nc(CO)c[nH]1)CC1CCNCC1` [Compound 40, Methyl (4-(4-(hydroxymethyl)-1H-imidazol-2-yl)butyl)(piperidin-4-ylmethyl)carbamate bis trifluoroacetic acid]: at WDR5 [1] (setting [5]), binding was characterised by a dissociation constant (Kd) of 19 ± 3 µM.

Take `COC(=O)N(CCCCc1nc(CO)c[nH]1)Cc1ccc(=O)[nH]c1.O=C(O)C(F)(F)F` [Compound 45, Methyl (4-(4-(hydroxymethyl)-1H-imidazol-2-yl)butyl)((6-oxo-1,6-dihydropyridin-3-yl)methyl)carbamate trifluoroacetic acid]: the Kd at WDR5 [1] (setting [5]) was determined as 98.6 ± 0.6 µM. For the same compound, on WDR5 [1] (ratio of SPR KD values), the “fold weaker binding than 37” value is listed as 20 fold. Regarding `COC(=O)N(CCCCc1nc(CO)c[nH]1)Cc1cc[nH]c(=O)c1` [Compound 47, Methyl (4-(4-(hydroxymethyl)-1H-imidazol-2-yl)butyl)((2-oxo-1,2-dihydropyridin-4-yl)methyl)carbamate hydrochloride], the Kd at WDR5 [1] (setting [5]) was determined as 24.2 ± 0.2 µM. Turning to `CC(=O)NC(C)C(=O)NC(CCCc1nc(CO)c[nH]1)C(=O)NC(C(N)=O)C(C)C` (stereo not shown) [Compound 55, 2-(2-acetamidopropanamido)-N-(1-amino-3-methyl-1-oxobutan-2-yl)-5-(4-(hydroxymethyl)-1H-imidazol-2-yl)pentanamide], the koff on WDR5 [2] (setting [6]) amounted to 0.067 s⁻¹. For the same compound, on WDR5 [2], the “binding to WDR5” value was “Binding was observed”. For `CC(=O)NC(C)(C)C(=O)NC(CCCc1nc(CO)c[nH]1)C(=O)NC(C(N)=O)C(C)C` (stereo not shown) [Compound 59, 2-(2-acetamido-2-methylpropanamido)-N-(1-amino-3-methyl-1-oxobutan-2-yl)-5-(4-(hydroxymethyl)-1H-imidazol-2-yl)pentanamide], in that order: 0.025 s⁻¹ and “Binding was observed”. As for Ac-ARV-NH2 [reference compound], on WDR5 [2] (setting [6]), the “kd (dissociation rate)” value was found to be 0.054 s⁻¹.
